Reference: ChEMBL document CHEMBL1134625 (J Med Chem, 2001)

Assays:
Substance-K receptor = Substance-K receptor (Homo sapiens, UniProt P21452)
[1] = target: T1, Sodium-dependent dopamine transporter (Homo sapiens, UniProt Q01959)
Histamine H1 receptor = Histamine H1 receptor (Homo sapiens, UniProt P35367)
D(2) dopamine receptor = D(2) dopamine receptor (Homo sapiens, UniProt P14416)
D(1B) dopamine receptor = D(1B) dopamine receptor (Homo sapiens, UniProt P21918)
Adenosine receptor A3 = target: T2, Adenosine receptor A3 (Homo sapiens, UniProt P0DMS8)
T2 sequence (P0DMS8 whole entry): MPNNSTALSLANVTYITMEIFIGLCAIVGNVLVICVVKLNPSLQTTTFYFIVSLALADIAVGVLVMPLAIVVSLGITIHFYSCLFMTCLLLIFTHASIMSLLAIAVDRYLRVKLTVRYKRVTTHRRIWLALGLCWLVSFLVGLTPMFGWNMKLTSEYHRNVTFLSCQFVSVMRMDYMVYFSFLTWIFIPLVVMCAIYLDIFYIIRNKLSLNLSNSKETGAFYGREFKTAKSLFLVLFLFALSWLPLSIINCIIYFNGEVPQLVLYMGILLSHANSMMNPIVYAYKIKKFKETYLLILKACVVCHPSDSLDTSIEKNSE

[2] = target: 5-hydroxytryptamine receptor 7 (Homo sapiens, UniProt P34969)
Chain of 5-hydroxytryptamine receptor 7 (P34969 whole entry): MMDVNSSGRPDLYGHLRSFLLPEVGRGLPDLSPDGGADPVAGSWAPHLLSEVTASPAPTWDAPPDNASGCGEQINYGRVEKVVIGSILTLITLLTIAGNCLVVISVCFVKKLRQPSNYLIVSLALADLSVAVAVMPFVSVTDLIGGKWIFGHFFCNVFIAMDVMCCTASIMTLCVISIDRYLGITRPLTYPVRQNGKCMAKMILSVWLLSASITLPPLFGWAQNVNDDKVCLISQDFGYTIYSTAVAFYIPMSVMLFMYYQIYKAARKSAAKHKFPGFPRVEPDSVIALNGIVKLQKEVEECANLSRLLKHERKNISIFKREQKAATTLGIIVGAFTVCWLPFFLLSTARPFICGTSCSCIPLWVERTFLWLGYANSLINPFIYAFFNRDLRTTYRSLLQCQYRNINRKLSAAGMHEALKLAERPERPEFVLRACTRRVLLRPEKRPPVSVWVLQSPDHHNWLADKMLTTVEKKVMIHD

[3] = target: 5-hydroxytryptamine receptor 6 (Homo sapiens, UniProt P50406)
Chain of 5-hydroxytryptamine receptor 6 (P50406 whole entry): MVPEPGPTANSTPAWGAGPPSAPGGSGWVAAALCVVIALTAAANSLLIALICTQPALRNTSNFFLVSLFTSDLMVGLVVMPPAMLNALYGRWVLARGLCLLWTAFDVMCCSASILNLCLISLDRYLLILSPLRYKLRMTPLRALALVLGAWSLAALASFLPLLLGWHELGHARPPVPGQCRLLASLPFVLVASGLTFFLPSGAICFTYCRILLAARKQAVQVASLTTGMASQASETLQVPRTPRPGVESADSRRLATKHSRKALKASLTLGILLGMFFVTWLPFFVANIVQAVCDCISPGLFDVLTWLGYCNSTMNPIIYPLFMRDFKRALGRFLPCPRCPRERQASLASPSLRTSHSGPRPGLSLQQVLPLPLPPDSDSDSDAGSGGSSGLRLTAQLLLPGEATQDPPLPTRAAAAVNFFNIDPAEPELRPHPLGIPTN

[4] = target: T3, Adrenergic receptor alpha-1 (Homo sapiens, UniProt P35348+P25100+P35368); format: protein assay
T3 sequence (P35348 whole entry): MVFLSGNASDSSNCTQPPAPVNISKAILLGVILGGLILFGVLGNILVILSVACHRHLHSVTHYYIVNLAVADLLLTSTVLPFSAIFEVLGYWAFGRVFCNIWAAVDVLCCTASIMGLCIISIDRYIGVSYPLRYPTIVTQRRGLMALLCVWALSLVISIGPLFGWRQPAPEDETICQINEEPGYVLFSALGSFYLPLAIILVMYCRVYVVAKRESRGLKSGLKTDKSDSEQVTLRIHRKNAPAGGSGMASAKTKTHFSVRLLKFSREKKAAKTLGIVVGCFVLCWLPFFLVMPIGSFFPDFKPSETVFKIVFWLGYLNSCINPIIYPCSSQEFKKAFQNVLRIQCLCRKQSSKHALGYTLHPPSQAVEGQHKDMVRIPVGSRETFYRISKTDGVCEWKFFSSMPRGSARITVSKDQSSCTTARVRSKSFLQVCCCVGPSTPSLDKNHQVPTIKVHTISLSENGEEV
T3 sequence (P25100 whole entry): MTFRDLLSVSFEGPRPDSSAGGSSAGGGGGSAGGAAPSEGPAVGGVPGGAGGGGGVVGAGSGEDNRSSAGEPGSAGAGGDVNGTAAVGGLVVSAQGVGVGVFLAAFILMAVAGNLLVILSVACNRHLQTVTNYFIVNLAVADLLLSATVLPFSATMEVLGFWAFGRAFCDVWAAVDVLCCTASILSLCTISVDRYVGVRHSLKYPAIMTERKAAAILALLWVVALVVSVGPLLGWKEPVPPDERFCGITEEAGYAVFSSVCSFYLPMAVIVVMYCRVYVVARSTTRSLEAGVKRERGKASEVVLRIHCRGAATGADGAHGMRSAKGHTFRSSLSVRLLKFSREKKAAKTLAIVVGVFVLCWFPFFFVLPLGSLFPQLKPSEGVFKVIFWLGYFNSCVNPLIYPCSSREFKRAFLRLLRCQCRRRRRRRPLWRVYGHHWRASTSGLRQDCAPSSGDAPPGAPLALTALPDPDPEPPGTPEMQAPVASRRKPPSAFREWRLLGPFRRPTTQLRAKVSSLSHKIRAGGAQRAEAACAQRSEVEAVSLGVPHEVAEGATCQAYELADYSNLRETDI
T3 sequence (P35368 whole entry): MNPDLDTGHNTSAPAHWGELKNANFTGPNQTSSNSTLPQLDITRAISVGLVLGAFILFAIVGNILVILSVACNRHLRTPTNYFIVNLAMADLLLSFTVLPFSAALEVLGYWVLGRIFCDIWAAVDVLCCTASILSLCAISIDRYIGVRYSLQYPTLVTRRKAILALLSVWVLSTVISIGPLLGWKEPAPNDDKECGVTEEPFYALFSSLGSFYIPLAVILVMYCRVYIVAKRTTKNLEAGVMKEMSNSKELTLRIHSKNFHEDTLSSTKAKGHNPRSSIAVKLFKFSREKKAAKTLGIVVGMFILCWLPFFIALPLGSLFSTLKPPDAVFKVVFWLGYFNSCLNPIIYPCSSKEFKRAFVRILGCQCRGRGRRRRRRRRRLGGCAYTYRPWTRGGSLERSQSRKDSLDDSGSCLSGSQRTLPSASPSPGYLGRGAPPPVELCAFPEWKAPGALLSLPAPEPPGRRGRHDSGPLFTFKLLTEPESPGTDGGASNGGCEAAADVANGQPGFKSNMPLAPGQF

Histamine H2 receptor = Histamine H2 receptor (Homo sapiens, UniProt P25021)
Chain of Histamine H2 receptor (P25021 whole entry): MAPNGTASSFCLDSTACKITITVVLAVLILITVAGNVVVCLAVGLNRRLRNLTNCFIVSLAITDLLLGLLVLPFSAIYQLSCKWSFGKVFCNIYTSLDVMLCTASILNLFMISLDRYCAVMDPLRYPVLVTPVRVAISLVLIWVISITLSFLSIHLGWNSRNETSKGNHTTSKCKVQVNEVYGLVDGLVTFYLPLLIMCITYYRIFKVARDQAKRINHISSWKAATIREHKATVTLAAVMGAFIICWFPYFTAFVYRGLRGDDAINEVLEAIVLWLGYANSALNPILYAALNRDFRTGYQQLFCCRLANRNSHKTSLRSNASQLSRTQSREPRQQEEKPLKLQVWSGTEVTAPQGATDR

D(3) dopamine receptor = D(3) dopamine receptor (Homo sapiens, UniProt P35462)
Chain of D(3) dopamine receptor (P35462 whole entry): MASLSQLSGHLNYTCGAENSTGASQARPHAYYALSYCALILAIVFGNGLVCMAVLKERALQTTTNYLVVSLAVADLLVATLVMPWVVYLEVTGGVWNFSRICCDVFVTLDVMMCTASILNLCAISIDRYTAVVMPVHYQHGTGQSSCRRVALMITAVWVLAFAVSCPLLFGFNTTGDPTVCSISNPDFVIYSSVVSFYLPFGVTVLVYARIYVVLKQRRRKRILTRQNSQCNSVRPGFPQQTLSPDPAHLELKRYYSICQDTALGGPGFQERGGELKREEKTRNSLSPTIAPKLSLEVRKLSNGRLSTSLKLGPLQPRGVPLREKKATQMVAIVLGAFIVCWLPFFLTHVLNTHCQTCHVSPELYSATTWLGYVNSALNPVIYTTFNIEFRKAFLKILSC

[5] = target: Voltage-gated L-type calcium channel (Homo sapiens, UniProt Q13936+Q13698+Q01668+O60840); format: protein assay
Substance-P receptor = Substance-P receptor (Homo sapiens, UniProt P25103)
[6] = target: T4, 5-hydroxytryptamine receptor 2C (Homo sapiens, UniProt P28335)
T4 sequence (P28335 whole entry): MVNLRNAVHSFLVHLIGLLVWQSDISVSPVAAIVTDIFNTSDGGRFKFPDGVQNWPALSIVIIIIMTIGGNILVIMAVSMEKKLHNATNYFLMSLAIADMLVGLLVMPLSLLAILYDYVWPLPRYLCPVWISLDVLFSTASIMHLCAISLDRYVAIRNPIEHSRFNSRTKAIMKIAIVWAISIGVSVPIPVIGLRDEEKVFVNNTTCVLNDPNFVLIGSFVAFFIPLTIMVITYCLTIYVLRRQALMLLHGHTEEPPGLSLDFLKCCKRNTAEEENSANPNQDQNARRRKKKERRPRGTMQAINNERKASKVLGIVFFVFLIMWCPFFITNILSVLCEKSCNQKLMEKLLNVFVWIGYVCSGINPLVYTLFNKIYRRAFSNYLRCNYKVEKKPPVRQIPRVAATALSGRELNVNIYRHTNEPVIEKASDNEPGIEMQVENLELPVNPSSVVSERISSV

D(1A) dopamine receptor = D(1A) dopamine receptor (Homo sapiens, UniProt P21728)
Chain of D(1A) dopamine receptor (P21728 whole entry): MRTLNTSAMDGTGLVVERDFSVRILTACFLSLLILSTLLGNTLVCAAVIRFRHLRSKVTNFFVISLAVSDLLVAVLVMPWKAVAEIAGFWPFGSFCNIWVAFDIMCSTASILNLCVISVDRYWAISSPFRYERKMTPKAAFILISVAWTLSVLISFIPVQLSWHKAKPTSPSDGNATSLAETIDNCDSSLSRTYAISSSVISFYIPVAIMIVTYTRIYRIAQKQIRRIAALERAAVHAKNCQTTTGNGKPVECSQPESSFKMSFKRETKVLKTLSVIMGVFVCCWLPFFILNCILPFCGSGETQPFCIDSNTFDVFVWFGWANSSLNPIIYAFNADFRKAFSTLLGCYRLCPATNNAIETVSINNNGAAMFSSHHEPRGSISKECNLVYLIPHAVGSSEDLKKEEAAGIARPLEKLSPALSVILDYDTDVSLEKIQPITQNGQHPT

[7] = target: 5-hydroxytryptamine receptor 2A (Homo sapiens, UniProt P28223)
Chain of 5-hydroxytryptamine receptor 2A (P28223 whole entry): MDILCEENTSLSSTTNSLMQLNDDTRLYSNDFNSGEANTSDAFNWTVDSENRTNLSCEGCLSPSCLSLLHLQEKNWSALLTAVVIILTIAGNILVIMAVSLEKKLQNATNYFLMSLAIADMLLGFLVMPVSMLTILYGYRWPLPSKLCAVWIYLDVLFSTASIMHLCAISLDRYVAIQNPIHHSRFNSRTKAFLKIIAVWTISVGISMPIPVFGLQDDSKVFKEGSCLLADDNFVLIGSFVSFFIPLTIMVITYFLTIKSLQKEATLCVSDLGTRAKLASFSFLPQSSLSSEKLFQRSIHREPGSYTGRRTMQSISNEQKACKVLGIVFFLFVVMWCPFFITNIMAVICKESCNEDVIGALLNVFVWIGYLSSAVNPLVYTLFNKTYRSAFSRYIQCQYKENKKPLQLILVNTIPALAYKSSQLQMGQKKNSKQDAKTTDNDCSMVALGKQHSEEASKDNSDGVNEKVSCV

D(4) dopamine receptor = target: T5, D(4) dopamine receptor (Homo sapiens, UniProt P21917)
T5 sequence (P21917 whole entry): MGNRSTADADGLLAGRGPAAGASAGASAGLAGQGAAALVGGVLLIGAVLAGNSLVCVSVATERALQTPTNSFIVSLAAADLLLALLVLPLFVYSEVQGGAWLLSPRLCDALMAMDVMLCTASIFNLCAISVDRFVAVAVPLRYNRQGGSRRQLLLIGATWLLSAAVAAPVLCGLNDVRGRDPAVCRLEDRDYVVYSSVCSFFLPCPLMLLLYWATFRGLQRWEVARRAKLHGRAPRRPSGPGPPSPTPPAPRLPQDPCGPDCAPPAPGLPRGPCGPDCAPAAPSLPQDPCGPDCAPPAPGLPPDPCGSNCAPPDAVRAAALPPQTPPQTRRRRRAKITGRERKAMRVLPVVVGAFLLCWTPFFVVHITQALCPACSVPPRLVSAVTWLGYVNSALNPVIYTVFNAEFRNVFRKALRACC

[8] = target: T6, 5-hydroxytryptamine receptor 1A (Homo sapiens, UniProt P08908)
T6 sequence (P08908 whole entry): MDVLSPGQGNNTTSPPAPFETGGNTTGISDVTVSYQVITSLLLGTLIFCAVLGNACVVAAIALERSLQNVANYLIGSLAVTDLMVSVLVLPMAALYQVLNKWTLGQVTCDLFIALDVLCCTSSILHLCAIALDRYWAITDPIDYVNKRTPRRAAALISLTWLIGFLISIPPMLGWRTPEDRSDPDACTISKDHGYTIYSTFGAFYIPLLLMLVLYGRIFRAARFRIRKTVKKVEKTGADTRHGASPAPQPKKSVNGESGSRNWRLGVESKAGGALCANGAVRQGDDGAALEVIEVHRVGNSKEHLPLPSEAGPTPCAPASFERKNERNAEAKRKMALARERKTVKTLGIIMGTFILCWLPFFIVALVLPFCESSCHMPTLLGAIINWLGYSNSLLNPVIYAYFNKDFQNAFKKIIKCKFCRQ

[9] = target: 5-hydroxytryptamine receptor 5A (Homo sapiens, UniProt P47898)
Vasopressin V1a receptor = Vasopressin V1a receptor (Homo sapiens, UniProt P37288)
[10] = target: T1, Sodium-dependent dopamine transporter; remark: listed apart in the source
Adenosine receptor A1 = Adenosine receptor A1 (Homo sapiens, UniProt P30542)
Chain of Adenosine receptor A1 (P30542 whole entry): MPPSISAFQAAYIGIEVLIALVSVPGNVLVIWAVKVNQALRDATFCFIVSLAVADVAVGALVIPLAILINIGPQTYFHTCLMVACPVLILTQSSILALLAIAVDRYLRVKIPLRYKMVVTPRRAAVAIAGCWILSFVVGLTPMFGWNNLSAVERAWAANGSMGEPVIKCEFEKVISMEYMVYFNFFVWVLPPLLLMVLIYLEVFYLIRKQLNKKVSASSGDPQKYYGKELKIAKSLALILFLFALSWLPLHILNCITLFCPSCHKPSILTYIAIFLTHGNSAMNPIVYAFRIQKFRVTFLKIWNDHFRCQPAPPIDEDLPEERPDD

Chain of Histamine H1 receptor (P35367 whole entry): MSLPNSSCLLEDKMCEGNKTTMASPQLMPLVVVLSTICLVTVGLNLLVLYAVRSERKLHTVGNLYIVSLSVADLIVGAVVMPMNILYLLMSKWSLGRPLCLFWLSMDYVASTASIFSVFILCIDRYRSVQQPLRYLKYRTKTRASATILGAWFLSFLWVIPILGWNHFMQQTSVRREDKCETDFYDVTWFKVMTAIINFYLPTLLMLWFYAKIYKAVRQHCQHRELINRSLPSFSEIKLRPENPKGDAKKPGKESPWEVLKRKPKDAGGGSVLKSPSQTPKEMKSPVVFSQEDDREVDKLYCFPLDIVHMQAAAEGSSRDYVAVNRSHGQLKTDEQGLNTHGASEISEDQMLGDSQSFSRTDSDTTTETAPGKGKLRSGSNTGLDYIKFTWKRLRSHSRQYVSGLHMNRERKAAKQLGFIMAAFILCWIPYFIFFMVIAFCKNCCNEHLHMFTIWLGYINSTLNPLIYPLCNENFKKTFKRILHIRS
Chain of D(2) dopamine receptor (P14416 whole entry): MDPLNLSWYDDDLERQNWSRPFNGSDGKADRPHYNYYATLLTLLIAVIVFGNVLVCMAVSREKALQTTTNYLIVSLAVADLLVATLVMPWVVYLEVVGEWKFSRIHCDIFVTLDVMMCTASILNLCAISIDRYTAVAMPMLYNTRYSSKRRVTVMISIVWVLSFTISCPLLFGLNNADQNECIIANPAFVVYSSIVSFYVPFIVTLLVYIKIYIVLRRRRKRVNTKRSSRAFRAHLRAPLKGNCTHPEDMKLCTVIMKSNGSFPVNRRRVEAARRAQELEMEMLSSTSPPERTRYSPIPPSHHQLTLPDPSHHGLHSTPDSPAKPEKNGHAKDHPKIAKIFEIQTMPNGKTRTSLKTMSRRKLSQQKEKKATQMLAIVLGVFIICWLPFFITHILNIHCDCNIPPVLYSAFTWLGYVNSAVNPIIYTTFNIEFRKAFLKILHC
T1 sequence (Q01959 whole entry): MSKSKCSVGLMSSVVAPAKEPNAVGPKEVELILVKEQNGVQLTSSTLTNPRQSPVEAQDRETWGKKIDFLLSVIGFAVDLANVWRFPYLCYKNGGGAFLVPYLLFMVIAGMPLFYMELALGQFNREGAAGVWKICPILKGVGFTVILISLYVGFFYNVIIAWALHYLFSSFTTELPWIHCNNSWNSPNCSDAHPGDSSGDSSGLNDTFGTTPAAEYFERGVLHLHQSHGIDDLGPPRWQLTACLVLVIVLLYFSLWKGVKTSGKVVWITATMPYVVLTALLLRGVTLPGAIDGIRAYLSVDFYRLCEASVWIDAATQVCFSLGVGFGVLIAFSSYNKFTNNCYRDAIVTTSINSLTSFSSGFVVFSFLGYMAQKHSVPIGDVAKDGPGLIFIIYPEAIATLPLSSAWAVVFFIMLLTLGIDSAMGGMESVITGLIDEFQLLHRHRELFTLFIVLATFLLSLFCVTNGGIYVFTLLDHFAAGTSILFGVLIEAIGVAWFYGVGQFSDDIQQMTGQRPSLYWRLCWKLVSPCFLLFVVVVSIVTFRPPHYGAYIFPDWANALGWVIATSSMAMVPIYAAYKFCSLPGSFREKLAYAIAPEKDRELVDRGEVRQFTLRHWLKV
Chain of D(1B) dopamine receptor (P21918 whole entry): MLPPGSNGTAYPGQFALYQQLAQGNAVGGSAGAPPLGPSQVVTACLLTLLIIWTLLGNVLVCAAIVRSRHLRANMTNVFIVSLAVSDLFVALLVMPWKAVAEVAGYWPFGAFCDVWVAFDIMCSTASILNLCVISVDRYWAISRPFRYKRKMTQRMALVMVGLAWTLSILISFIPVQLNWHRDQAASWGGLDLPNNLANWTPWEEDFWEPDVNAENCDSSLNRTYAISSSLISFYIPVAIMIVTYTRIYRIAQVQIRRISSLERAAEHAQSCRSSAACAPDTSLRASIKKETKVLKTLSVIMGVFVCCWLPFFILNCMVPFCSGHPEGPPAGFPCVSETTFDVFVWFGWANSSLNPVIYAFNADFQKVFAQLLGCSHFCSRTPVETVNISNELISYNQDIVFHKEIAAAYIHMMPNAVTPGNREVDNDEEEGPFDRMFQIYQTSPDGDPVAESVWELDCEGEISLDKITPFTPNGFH

CCOc1ccc(CCNC(=O)N2CCN(CCCC(c3ccc(F)cc3)c3ccc(F)cc3)CC2)cc1
IC50 (Substance-K receptor): 5.18 µM | IC50 [1]: 0.994 µM | IC50 (Histamine H1 receptor): 1.82 µM | IC50 (D(2) dopamine receptor): 2.89 µM | IC50 (D(1B) dopamine receptor): 1.45 µM | IC50 (Adenosine receptor A3): 2.46 µM | IC50 [2]: 2.04 µM | IC50 [3]: 0.8 µM | IC50 [4]: 0.993 µM | IC50 (Histamine H2 receptor): 0.757 µM | IC50 (D(3) dopamine receptor): 0.341 µM | IC50 [5]: 0.86 µM | IC50 (Substance-P receptor): 0.839 µM | IC50 [6]: 1.42 µM | IC50 (D(1A) dopamine receptor): 0.967 µM | IC50 [7]: 0.231 µM

COc1ccc(SCCC(=O)N2CCN(Cc3cccc(Oc4ccc(Cl)cc4)c3)CC2)cc1
IC50 (Adenosine receptor A3): 3.75 µM

CCOc1ccc(CCOC(=O)N2CCN(CCCc3ccccc3)CC2)cc1
IC50 (Adenosine receptor A3): 4.18 µM | IC50 [2]: 1.43 µM | IC50 [7]: 0.98 µM

O=C(CCc1ccc(F)cc1)N1CCN(CCCC(c2ccc(F)cc2)c2ccc(F)cc2)CC1
IC50 [1]: 1.28 µM | IC50 (Histamine H1 receptor): 1.66 µM | IC50 (D(1B) dopamine receptor): 3.02 µM | IC50 (Adenosine receptor A3): 5.08 µM | IC50 [2]: 1.17 µM | IC50 [3]: 1.35 µM | IC50 (D(4) dopamine receptor): 0.716 µM | IC50 [4]: 1.17 µM | IC50 (Histamine H2 receptor): 1.34 µM | IC50 (D(3) dopamine receptor): 0.977 µM | IC50 [5]: 4.3 µM | IC50 [8]: 1.11 µM | IC50 [7]: 1.03 µM

O=C(CCCc1ccccc1)N1CCN(CCCC(c2ccc(F)cc2)c2ccc(F)cc2)CC1
IC50 [1]: 0.954 µM | IC50 (Histamine H1 receptor): 1.93 µM | IC50 (D(1B) dopamine receptor): 1.86 µM | IC50 [2]: 2.13 µM | IC50 [3]: 7.78 µM | IC50 (D(4) dopamine receptor): 0.28 µM | IC50 [4]: 2.19 µM | IC50 (Histamine H2 receptor): 1.98 µM | IC50 (D(3) dopamine receptor): 0.758 µM | IC50 [9]: 5.52 µM | IC50 [5]: 2.35 µM | IC50 [6]: 4.07 µM | IC50 (D(1A) dopamine receptor): 2.75 µM | IC50 [7]: 0.95 µM

N#Cc1ccc(CCOC(=O)N2CCN(CCCc3ccccc3)CC2)cc1
IC50 (Histamine H1 receptor): 0.28 µM | IC50 (D(4) dopamine receptor): 1.41 µM | IC50 [8]: 1.57 µM | IC50 [7]: 0.854 µM

O=C(OCCc1ccc(F)cc1)N1CCN(CCCC(c2ccc(F)cc2)c2ccc(F)cc2)CC1
IC50 [1]: 1.65 µM | IC50 (Histamine H1 receptor): 1.28 µM | IC50 (D(2) dopamine receptor): 2.62 µM | IC50 (D(1B) dopamine receptor): 1.55 µM | IC50 (Adenosine receptor A3): 4.21 µM | IC50 [2]: 0.726 µM | IC50 [3]: 1.53 µM | IC50 (D(4) dopamine receptor): 0.338 µM | IC50 [4]: 1.64 µM | IC50 (Histamine H2 receptor): 1.25 µM | IC50 (D(3) dopamine receptor): 0.456 µM | IC50 [5]: 2.73 µM | IC50 [6]: 3.45 µM | IC50 [8]: 1.14 µM | IC50 [7]: 1.06 µM

O=C(OC1CCc2ccccc21)N1CCC2(CC1)C(=O)NCN2c1ccccc1 (stereo not given)
IC50 (D(3) dopamine receptor): 3.18 µM | IC50 (Vasopressin V1a receptor): 5.16 µM | IC50 [6]: 0.345 µM

O=c1[nH]c2ccccc2n(C2CCN(Cc3cc4c(cc3Cl)OCO4)CC2)c1=O
IC50 [1]: 1.52 µM | IC50 (D(4) dopamine receptor): 6.55 µM

N#Cc1ccc(CCOC(=O)N2CCN(CCCC(c3ccc(F)cc3)c3ccc(F)cc3)CC2)cc1
IC50 [1]: 0.996 µM | IC50 (Histamine H1 receptor): 0.795 µM | IC50 (D(2) dopamine receptor): 2.24 µM | IC50 (D(1B) dopamine receptor): 0.988 µM | IC50 (Adenosine receptor A3): 3.48 µM | IC50 [2]: 1.44 µM | IC50 [3]: 2.28 µM | IC50 (D(4) dopamine receptor): 0.776 µM | IC50 [4]: 1.1 µM | IC50 (Histamine H2 receptor): 1.03 µM | IC50 (D(3) dopamine receptor): 0.195 µM | IC50 [9]: 3.38 µM | IC50 [5]: 1.72 µM | IC50 [8]: 1.02 µM | IC50 (D(1A) dopamine receptor): 1.12 µM | IC50 [7]: 0.715 µM

O=C(OCc1cccc(Oc2ccccc2)c1)N1CCC2(CC1)C(=O)NCN2c1ccccc1
IC50 [10]: 2.94 µM | IC50 (Adenosine receptor A3): 1.51 µM | IC50 [6]: 0.652 µM | IC50 [8]: 2.08 µM

O=C(NCCCn1c(=O)[nH]c2ccccc21)OCc1cc2c(cc1Cl)OCO2
IC50 (Adenosine receptor A3): 3.33 µM | IC50 (Adenosine receptor A1): 0.344 µM

COc1ccc(CN2CCN(C(=O)CCn3cc(C)c4ccccc43)CC2)cc1OCc1ccccc1
IC50 (Adenosine receptor A3): 3.73 µM | IC50 [5]: 4.84 µM
